Source: ChEMBL document CHEMBL2010716, “Structure based design of an in vivo active hydroxamic acid inhibitor of P. aeruginosa LpxC” (Bioorg Med Chem Lett, 2012)
Values after ≈ are worked out from the molar mass of the structure shown. Active and inactive are the calls of the source. No cut-off for these calls is given here.

What was measured:
[1] = tested on: Pseudomonas aeruginosa; assay: Antibacterial activity against wild type Pseudomonas aeruginosa; assay type: functional
[2] = biological target: T1, UDP-3-O-acyl-N-acetylglucosamine deacetylase (Pseudomonas aeruginosa (strain ATCC 15692 / PAO1 / 1C / PRS 101 / LMG12228), UniProt P47205); assay: Inhibition of Pseudomonas aeruginosa LpxC
T1 sequence (P47205 whole entry): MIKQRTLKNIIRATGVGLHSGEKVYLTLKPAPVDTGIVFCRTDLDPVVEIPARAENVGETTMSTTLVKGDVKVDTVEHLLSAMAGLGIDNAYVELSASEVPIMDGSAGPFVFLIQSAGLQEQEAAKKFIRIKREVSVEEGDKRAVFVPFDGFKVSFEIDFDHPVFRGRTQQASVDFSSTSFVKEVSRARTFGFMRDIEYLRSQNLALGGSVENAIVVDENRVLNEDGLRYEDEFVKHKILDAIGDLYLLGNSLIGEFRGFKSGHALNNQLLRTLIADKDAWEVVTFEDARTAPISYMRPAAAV

[3] = Half life in human hepatocytes; assay type: ADME, cell-based, Liver, Hepatocyte
[4] = Half life in rat hepatocytes; assay type: ADME, cell-based, Liver, Hepatocyte
[5] = tested on: Pseudomonas aeruginosa; assay: Antibacterial activity against efflux pump knock-down Pseudomonas aeruginosa PAO280 by twofold broth microdilution technique; assay type: functional
[6] = tested on: Pseudomonas aeruginosa; assay: Antibacterial activity against wild type Pseudomonas aeruginosa UI-18 by NCCLS method; assay type: functional
[7] = Kinetic solubility of the compound at pH 6.5; assay type: physicochemical; details: buffer, read-out: Kinetic_solubility
[8] = tested on: Pseudomonas aeruginosa; assay: Antibacterial activity against wild type Pseudomonas aeruginosa UI-18 infected in sc dosed mouse; assay type: functional, organism-based
[9] = tested on: Pseudomonas aeruginosa; assay: Antibacterial activity against wild type Pseudomonas aeruginosa UI-18 infected in iv dosed mouse; assay type: functional; details: UI-18, iv, read-out: PD50
[10] = Kinetic solubility of the compound; assay type: physicochemical; details: read-out: Kinetic_solubility
[11] = tested on: Pseudomonas aeruginosa; assay: Antibacterial activity against Pseudomonas aeruginosa C53; assay type: functional
[12] = biological target: T2, UDP-3-O-acyl-N-acetylglucosamine deacetylase (Escherichia coli K-12, UniProt P0A725); assay: Inhibition of Escherichia coli LpxC
T2 sequence (P0A725 whole entry): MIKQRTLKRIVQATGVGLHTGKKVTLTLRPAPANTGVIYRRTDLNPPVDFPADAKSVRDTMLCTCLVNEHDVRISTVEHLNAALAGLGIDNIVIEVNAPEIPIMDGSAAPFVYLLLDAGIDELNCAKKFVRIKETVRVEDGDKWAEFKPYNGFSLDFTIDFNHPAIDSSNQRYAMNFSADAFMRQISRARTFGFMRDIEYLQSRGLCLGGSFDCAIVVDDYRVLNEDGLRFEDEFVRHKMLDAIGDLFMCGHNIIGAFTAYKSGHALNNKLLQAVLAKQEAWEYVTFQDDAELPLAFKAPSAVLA

Row | SMILES | IC50 [2] [nM] | MIC [5] [µg/mL] | MIC [6] [µg/mL] | other results
1 | C[C@@H](N)[C@@H](NC(=O)N1CCN(c2ccc(C#Cc3ccccc3)cc2)CC1)C(=O)NO | – | – | – | MIC [1]: 12.5 µg/mL (≈ 29.7 µM)
2 | CCc1ccc(-c2ccc(C(=O)N[C@H](C(=O)NO)[C@@H](C)O)cc2)cc1 | 8 | – | – | MIC [1]: 4 µg/mL (≈ 11.7 µM); half-life [3]: 3.83 h; half-life [4]: 0.75 h
3 | C[C@@](OCc1ccc(-c2ccccc2)cc1)(C(=O)NO)[C@@H](O)c1ccn[nH]1 | 0.4 | 0.25 (≈ 0.68 µM) | 4 (≈ 10.9 µM) | –
4 | CC(C)(OCc1ccc(-c2ccccc2)cc1)C(=O)NO | 311 | – | – | MIC [1]: > 64 µg/mL
5 | CC[C@H](O)[C@@](C)(OCc1ccc(-c2ccccc2)cc1)C(=O)NO | 8 | 3 (≈ 9.11 µM) | > 64 | –
6 | Cc1cc([C@H](O)[C@](C)(OCc2ccc(-c3ccccc3)cc2)C(=O)NO)no1 | – | 0.015 (≈ 0.0392 µM) | 1.75 (≈ 4.58 µM) | solubility kinetic [7]: 59 µM (≈ 22.6 µg/mL); half-life [3]: 0.333 h
7 | C[C@@](OCc1ccc(-c2ccccc2)cc1)(C(=O)NO)[C@@H](O)c1cc(CO)on1 | 0.6 | 0.015 (≈ 0.0376 µM) | 1 (≈ 2.51 µM) | solubility kinetic [7]: 130 µM (≈ 51.8 µg/mL); Activity [8]: inactive; half-life [3]: 2.33 h; ED50 [9]: 37 mg/kg
8 | CC(CO)(OCc1ccc(-c2ccccc2)cc1)C(=O)NO (racemic) | 22 | 4 (≈ 13.3 µM) | > 64 | MIC [1]: > 64 µg/mL; solubility kinetic [10]: 200 µM (≈ 60.3 µg/mL); half-life [3]: 6 h
9 | C[C@@H](O)[C@](C)(OCc1ccc(-c2ccccc2)cc1)C(=O)NO | 4 | 0.75 (≈ 2.38 µM) | 64 (≈ 203 µM) | –
10 | C[C@@](OCc1ccc(-c2ccccc2)cc1)(C(=O)NO)[C@@H](O)c1ccon1 | 0.4 | 0.06 (≈ 0.163 µM) | 6 (≈ 16.3 µM) | –
11 | CCCC[C@H](O)[C@](C)(OCc1ccc(-c2ccccc2)cc1)C(=O)NO | 90 | – | – | –
12 | Cn1ccnc1[C@H](O)[C@](C)(OCc1ccc(-c2ccccc2)cc1)C(=O)NO | 25 | 0.19 (≈ 0.498 µM) | 33 (≈ 86.5 µM) | –
13 | C[C@H](O)[C@](C)(OCc1ccc(-c2ccccc2)cc1)C(=O)NO | – | 0.5 (≈ 1.59 µM) | 32 (≈ 101 µM) | –
14 | CC(CO)(NC(=O)c1ccc(-c2ccccc2)cc1)C(=O)NO (racemic) | 286 | 32 (≈ 102 µM) | > 64 | MIC [1]: > 64 µg/mL; solubility kinetic [10]: 200 µM (≈ 62.9 µg/mL); half-life [3]: 3.83 h; half-life [4]: 3.67 h
15 | C[C@@](OCc1ccc(-c2ccccc2)cc1)(C(=O)NO)[C@@H](O)c1c[nH]cn1 | 0.8 | 0.125 (≈ 0.34 µM) | 8 (≈ 21.8 µM) | –
16 | C[C@@](OCc1ccc(-c2ccccc2)cc1)(C(=O)NO)[C@@H](O)c1ccno1 | 0.8 | 0.125 (≈ 0.339 µM) | 8 (≈ 21.7 µM) | –
17 | O=C(NO)[C@@H](Cc1ccc2ccccc2c1)NS(=O)(=O)c1ccc2ccccc2c1 | – | – | – | MIC [11]: 4 µg/mL (≈ 9.51 µM); Ki [12]: 20 nM
18 | C[C@@](OCc1ccc(-c2ccccc2)cc1)(C(=O)NO)[C@@H](O)c1ccccc1 | 51 | 8 (≈ 21.2 µM) | > 64 | –
19 | Cn1nncc1[C@H](O)[C@](C)(OCc1ccc(-c2ccccc2)cc1)C(=O)NO | 26 | 2 (≈ 5.23 µM) | > 64 | –
20 | C[C@@](OCc1ccc(-c2ccccc2)cc1)(C(=O)NO)[C@@H](O)c1cccnc1 | 18 | 0.5 (≈ 1.32 µM) | 32 (≈ 84.6 µM) | –
21 | CC(C)[C@H](O)[C@](C)(OCc1ccc(-c2ccccc2)cc1)C(=O)NO | – | 32 (≈ 93.2 µM) | > 64 | –
22 | CC(C)C[C@H](O)[C@](C)(OCc1ccc(-c2ccccc2)cc1)C(=O)NO | – | 64 (≈ 179 µM) | > 64 | –
23 | C[C@](OCc1ccc(-c2ccccc2)cc1)(C(=O)NO)[C@@H](O)c1ccccn1 | 15 | 0.25 (≈ 0.661 µM) | 32 (≈ 84.6 µM) | –
24 | CC(CO)(CCc1ccc(-c2ccccc2)cc1)C(=O)NO (configuration not stated) | 3.3 | 0.5 (≈ 1.67 µM) | 16 (≈ 53.4 µM) | solubility kinetic [10]: 89 µM (≈ 26.6 µg/mL); half-life [3]: 1.2 h
25 | C[C@@](OCc1ccc(-c2ccccc2)cc1)(C(=O)NO)[C@@H](O)c1ncco1 | 3 | 0.25 (≈ 0.679 µM) | 8 (≈ 21.7 µM) | –
26 | CCOCC[C@H](O)[C@](C)(OCc1ccc(-c2ccccc2)cc1)C(=O)NO | 28 | > 64 | > 64 | –
27 | CC(CO)(COc1ccc(-c2ccccc2)cc1)C(=O)NO (configuration not stated) | 390 | – | – | solubility kinetic [10]: 26 µM (≈ 7.83 µg/mL); half-life [3]: 1.43 h
